Experimental data as given in patent publication US20230416258A1, “BENZ[…], AND PREPARATION METHOD THEREFOR AND USE THEREOF” (CHINA PHARMACEUTICAL UNIVERSITY, priority 2020, published 2023).

Experiments:
[1] = system: GABA-activated Cl− current (GABAA receptor) in HEK 293T cells; experiment: Effect of drugs on GABA-activated current in cells by cell patch clamp; assay type: cell-based; details: for EC50: read-out: Positive enhancement EC50 (μM) for 2 μM GABA-induced current, −60 mV; for Enhancement percentage Emax for 2 μM GABA current (within 3-30 μM): −60 mV, corresponding concentration 20 μM
Description: Test compounds were dissolved at various concentrations in an extracellular buffer (140 mM NaCl, 4.7 mM KCl, 10 mM HEPES, 2 mM CaCl2), 10 mM glucose, 1 mM MgCl2, pH 7.4). HEK 293T cells were seeded on glass coverslips and cultured in DMEM media at 37° C. with 5% CO2 for 24 h. GABA Cl^− current was subjected to whole cell recording using an HEKA EPC 10USB patch clamp amplifier. 2 μM GABA was used for exciting Cl^− current, with the membrane potential clamped at −60 mV. The cells were treated with the test compound and 2 μM GABA simultaneously, and the induction effect on and Emax of Cl^− current in the same cell were recorded.
Maximum enhancement percentage Emax for 2 μM GABA current and corresponding concentration (μM): 100% for normal humans. The greater the percentage, the lower the corresponding concentration, and the greater the depth of anesthesia.

hCMEC/D3 cells = experiment: Rate of drug passing through in vitro blood-brain barrier (Transwell); assay type: in vitro ADME; details: hCMEC/D3 monolayer, compound 0.1 mg/mL
Description: A Transwell device (pore size: 5.0 μm) was placed in a 24-well cell culture well; then hCMEC/D3 cells at 1×10^5 cells/mL were transferred to the upper microwells of Transwell at 150 μL/well, and cell culture medium was added to the lower microwells. After the bottom was covered by a single layer of the cells, the medium in the wells was replaced with EBM-2 complete medium containing 1% FBS, and the cells were cultured in a CO2 incubator for 10 days until a fully dense single layer of the cells was formed. When a fully dense single layer of the cells was formed, the compound at 0.1 mg/mL was added to the lower medium, and after 5 min, the concentration of the compound in the upper medium was measured to calculate the permeability:
Pcompound%=Cupper compound/Clower compound×100%

KM mice = experiment: Test for drug-induced disappearance of righting reflex in mice; assay type: in vivo; details: single rapid bolus via tail vein
Outline: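 Female KM mice (18–25 g), randomly grouped, given a single rapid bolus via tail vein. Latency (administration to loss of righting reflex) and duration (loss to recovery) recorded.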

SD rats [2] = experiment: Induction of anesthesia in rats by continuous infusion of drug for 20 min; assay type: in vivo; details: initial dose 20 mg/kg bolus, maintenance dose 0.2 (mg/kg)/min for 20 min, after infusion completed
Description: SD rats (male, 200-280 g) were randomly grouped and subjected to administration of an initial dose by rapid bolus via the tail vein, followed by a continuous infusion with a maintenance dose for 20 min.
After the infusion was completed, the duration of the righting reflex and the time from wake-up to recovery in rats were recorded.

SD rats [3] = experiment: Test for drug-induced disappearance of righting reflex in rats; assay type: in vivo; details: single rapid bolus via tail vein
Excerpt: In anesthetic drug experiments, latency generally refers to the time from the start of administration to the loss of consciousness of the subject. The shorter latency is preferred, indicating a rapid onset of action after administration. The duration of anesthesia generally refers to the duration of time from the loss of consciousness to the restoration of consciousness of the subject. The duration of the drug will vary from animal model to animal species. Too long anesthesia may produce adverse cardiovascular and respiratory responses, such as adverse neurological effects to the subject, including sleepiness and dizziness; meanwhile, too short duration of anesthesia may affect the anesthesia effect, causing problems such as increase of anesthesia dosage during the operation.
SD rats (male, 200-280 g) were randomly grouped and subjected to a single administration by rapid bolus via the tail vein. The latency and duration of righting reflex in the rats were recorded.

In the case of `COC(=O)CC[C@@H]1N=C(c2ccccc2F)c2cc(Cl)ccc2-n2c(S)nnc21` [Compound 1, methyl (S)-3-(8-chloro-6-(2-fluorophenyl)-1-mercapto-4H-benzo[f][1,2,4]triazolo[4,3-a][1,4]diazepin-4-yl)propionate], the EC50 [1] is reported as 0.85 µM, the “Enhancement percentage Emax for 2 μM GABA current (within 3-30 μM)” value (“Enhancement percentage Emax” for short) [1] is reported as 216% (20 μM) and the “In vitro blood-brain barrier, compound permeability at 5 min” value (from here on “In vitro blood-brain barrier”) (hCMEC/D3 cells) is reported as 72.2%. For the same compound, the Duration (KM mice; 30 mg/kg) was 3.51 min, the Latency (KM mice; 30 mg/kg) was 0.26 min and the Duration of anesthesia (SD rats [2]) was 2.82 min. For the same compound, the “Time from wake-up to recovery” value (SD rats [2]) was 11.2 min and the Latency (SD rats [3]) was 0.25 min.

For `COC(=O)CC[C@@H]1N=C(c2ccccc2F)c2cc([N+](=O)[O-])ccc2-n2c(SC)nnc21` [Compound 10, methyl (S)-3-(8-nitro-6-(2-fluorophenyl)-1-(methylthio)-4H-benzo[f][1,2,4]triazolo[4,3-a][1,4]diazepin-4-yl)propionate], the EC50 [1] was 0.67 µM, the “Enhancement percentage Emax” value [1] was 202% (20 μM) and the “In vitro blood-brain barrier” value (hCMEC/D3 cells) was 58.7%. The Duration (KM mice; 30 mg/kg) was 3.15 min, the Latency (KM mice; 30 mg/kg) was 0.76 min and the Duration of anesthesia (SD rats [2]) was 5.35 min. For the same compound, the “Time from wake-up to recovery” value (SD rats [2]) was 13.6 min and the Latency (SD rats [3]) was 0.32 min.

In the case of `CCSc1nnc2n1-c1ccc([N+](=O)[O-])cc1C(c1ccccc1F)=N[C@H]2CCC(=O)OC` [Compound 13, methyl (S)-3-(8-nitro-6-(2-fluorophenyl)-1-(ethylthio)-4H-benzo[f][1,2,4]triazolo[4,3-a][1,4]diazepin-4-yl)propionate], the EC50 [1] is reported as 0.58 µM, the “Enhancement percentage Emax” value [1] is reported as 246% (20 μM) and the “In vitro blood-brain barrier” value (hCMEC/D3 cells) is reported as 81.6%. It also gave a Duration (KM mice; 30 mg/kg) of 2.87 min, a Latency (KM mice; 30 mg/kg) of 0.23 min and a Duration of anesthesia (SD rats [2]) of 5.22 min. For the same compound, the “Time from wake-up to recovery” value (SD rats [2]) was 11.4 min and the Latency (SD rats [3]) was 0.58 min.

`COC(=O)CC[C@@H]1N=C(c2ccccc2Cl)c2cc(Cl)ccc2-n2c(SC)nnc21` [Compound 23, methyl (S)-3-(8-chloro-6-(2-chlorophenyl)-1-(methylthio)-4H-benzo[f][1,2,4]triazolo[4,3-a][1,4]diazepin-4-yl)propionate] was tested, and the EC50 [1] was 0.52 µM, the “Enhancement percentage Emax” value [1] was 278% (20 μM) and the “In vitro blood-brain barrier” value (hCMEC/D3 cells) was 65.3%. It also gave a Duration (KM mice; 60 mg/kg) of 8.46 min, a Latency (KM mice; 60 mg/kg) of 0.25 min and a Duration (KM mice; 100 mg/kg) of 14.6 min. For the same compound, the Latency (KM mice; 100 mg/kg) was 0.16 min, the Duration of anesthesia (SD rats [2]) was 7.22 min and the “Time from wake-up to recovery” value (SD rats [2]) was 13.2 min. The Latency (SD rats [3]) was 0.36 min.

In the case of `COC(=O)CC[C@@H]1N=C(c2ccccc2Cl)c2cc(Br)ccc2-n2c(SC)nnc21` [Compound 24, methyl (S)-3-(8-bromo-6-(2-chlorophenyl)-1-(methylthio)-4H-benzo[f][1,2,4]triazolo[4,3-a][1,4]diazepin-4-yl)propionate], the EC50 [1] is reported as 0.48 µM, the “Enhancement percentage Emax” value [1] is reported as 282% (20 μM) and the “In vitro blood-brain barrier” value (hCMEC/D3 cells) is reported as 73.4%. It also gave a Duration (KM mice; 60 mg/kg) of 6.83 min, a Latency (KM mice; 60 mg/kg) of 0.24 min and a Duration of anesthesia (SD rats [2]) of 15.6 min. For the same compound, the “Time from wake-up to recovery” value (SD rats [2]) was 22.3 min and the Latency (SD rats [3]) was 0.28 min.

`COC(=O)CC[C@@H]1N=C(c2ccccc2Cl)c2cc([N+](=O)[O-])ccc2-n2c(SC)nnc21` [Compound 25, methyl (S)-3-(8-nitro-6-(2-chlorophenyl)-1-(methylthio)-4H-benzo[f][1,2,4]triazolo[4,3-a][1,4]diazepin-4-yl)propionate] was tested, and the EC50 [1] was 0.64 µM, the “Enhancement percentage Emax” value [1] was 242% (20 μM) and the “In vitro blood-brain barrier” value (hCMEC/D3 cells) was 81.5%. The Duration (KM mice; 60 mg/kg) was 5.89 min, the Latency (KM mice; 60 mg/kg) was 0.31 min and the Duration of anesthesia (SD rats [2]) was 7.35 min. For the same compound, the “Time from wake-up to recovery” value (SD rats [2]) was 10.2 min and the Latency (SD rats [3]) was 0.45 min.

With `CCSc1nnc2n1-c1ccc(Cl)cc1C(c1ccccc1Cl)=N[C@H]2CCC(=O)OC` [Compound 26, methyl (S)-3-(8-chloro-6-(2-chlorophenyl)-1-(ethylthio)-4H-benzo[f][1,2,4]triazolo[4,3-a][1,4]diazepin-4-yl)propionate] the EC50 [1] was 0.71 µM, the “Enhancement percentage Emax” value [1] was 249% (20 μM) and the “In vitro blood-brain barrier” value (hCMEC/D3 cells) was 52.8%. For the same compound, the Duration (KM mice; 30 mg/kg) was 3.57 min, the Latency (KM mice; 30 mg/kg) was 1.5 min and the Duration (KM mice; 60 mg/kg) was 8.06 min. For the same compound, the Latency (KM mice; 60 mg/kg) was 0.18 min, the Duration of anesthesia (SD rats [2]) was 8.22 min and the “Time from wake-up to recovery” value (SD rats [2]) was 9.46 min. It also gave a Latency (SD rats [3]) of 0.36 min.

For `CCCSc1nnc2n1-c1ccc(Cl)cc1C(c1ccccc1Cl)=N[C@H]2CCC(=O)OC` [Compound 29, methyl (S)-3-(8-chloro-6-(2-chlorophenyl)-1-(propylthio)-4H-benzo[f][1,2,4]triazolo[4,3-a][1,4]diazepin-4-yl)propionate], the EC50 [1] was 0.74 µM, the “Enhancement percentage Emax” value [1] was 251% (20 μM) and the “In vitro blood-brain barrier” value (hCMEC/D3 cells) was 77.6%. It also gave a Duration (KM mice; 30 mg/kg) of 9.25 min, a Latency (KM mice; 30 mg/kg) of 0.57 min and a Duration of anesthesia (SD rats [2]) of 9.18 min. For the same compound, the “Time from wake-up to recovery” value (SD rats [2]) was 13.6 min and the Latency (SD rats [3]) was 0.86 min.

For `COC(=O)CC[C@@H]1N=C(c2ccccc2Cl)c2cc([N+](=O)[O-])ccc2-n2c(SCCO)nnc21` [Compound 34, methyl (S)-3-(8-nitro-6-(2-chlorophenyl)-1-((2-hydroxyethyl)thio)-4H-benzo[f][1,2,4]triazolo[4,3-a][1,4]diazepin-4-yl)propionate], the EC50 [1] was 0.38 µM, the “Enhancement percentage Emax” value [1] was 302% (20 μM) and the “In vitro blood-brain barrier” value (hCMEC/D3 cells) was 85.6%. The Duration (KM mice; 30 mg/kg) was 21.9 min, the Latency (KM mice; 30 mg/kg) was 0.3 min and the Duration of anesthesia (SD rats [2]) was 48.2 min. The “Time from wake-up to recovery” value (SD rats [2]) was 35.6 min and the Latency (SD rats [3]) was 0.22 min.

`COC(=O)CC[C@@H]1N=C(c2ccccn2)c2cc(Br)ccc2-n2c1n[nH]c2=S` [Tautomer of compound 3, methyl (S)-3-(8-bromo-6-(pyridin-2-yl)-1-thio-2,4-dihydro-1H-benzo[f][1,2,4]triazolo[4,3-a][1,4]diazepin-4-yl)propionate] gave a Duration (KM mice; 30 mg/kg) of 8.27 min and a Latency (KM mice; 30 mg/kg) of 0.65 min.

`COC(=O)CC[C@@H]1N=C(c2ccccc2)c2ccccc2-n2c1n[nH]c2=S` [Tautomer of compound 5, methyl (S)-3-(6-phenyl-1-thio-2,4-dihydro-1H-benzo[f][1,2,4]triazolo[4,3-a][1,4]diazepin-4-yl)propionate] showed a Duration (KM mice; 30 mg/kg) of 7.82 min and a Latency (KM mice; 30 mg/kg) of 0.73 min.

`COC(=O)CC[C@@H]1N=C(c2ccc(F)cc2)c2ccccc2-n2c1n[nH]c2=S` [Tautomer of compound 6, methyl (S)-3-(6-(4-fluorophenyl)-1-thio-2,4-dihydro-1H-benzo[f][1,2,4]triazolo[4,3-a][1,4]diazepin-4-yl)propionate] was tested, and the Duration (KM mice; 30 mg/kg) was 8.84 min and the Latency (KM mice; 30 mg/kg) was 0.73 min.

`COC(=O)CC[C@@H]1N=C(c2ccccc2)c2cc(Cl)ccc2-n2c1n[nH]c2=S` [Tautomer of compound 7, methyl (S)-3-(8-chloro-6-phenyl-1-thio-2,4-dihydro-1H-benzo[f][1,2,4]triazolo[4,3-a][1,4]diazepin-4-yl)propionate] was tested, and the Duration (KM mice; 30 mg/kg) was 9.22 min and the Latency (KM mice; 30 mg/kg) was 0.95 min.

For “methyl (S)-3-(8-chloro-6-(2-chlorophenyl)-1-(2-((4-methylpiperidin-2-carbonyl)ethyl)thio)-4H-benzo[f][1,2,4]triazolo[4,3-a][1,4]diazepin-4-yl)propionate [Compound 136]”, the Duration (KM mice; 30 mg/kg) was 17.5 min and the Latency (KM mice; 30 mg/kg) was 0.36 min.
